Experimental findings from publication PMC11638627 (Current Research in Microbial Sciences, 2024) are described below.

The experiment has as its system chitin deacetylase (CDA). As to the kind of experiment: p-nitroaniline release, absorbance at […] nm. Conditions: 50 mM phosphate buffer pH 7.4, 37 °C; partially purified enzyme with two bands. Type of experiment: biochemical, Aneurinibacillus aneurinilyticus.

As a reminder, the Km is the substrate concentration at which the rate is half of its maximum.

For the compound `CC(=O)Nc1ccc([N+](=O)[O-])cc1` [p-nitroacetanilide], the Km stood at 98.5 µM.
